Reference: patent US9284283B2, “Macrocyclic compounds for modulating IL-17” (ENSEMBLE THERAPEUTICS CORPORATION, priority 2012, dated 2016)

Assays:
[1] = molecular target: T1, recombinant human IL17a (binding to its receptor IL17R) (Homo sapiens, UniProt Q16552); assay: IL-17 competition ELISA I (IL17a coated, IL17R/Fc binding)
T1 construct: purchased R&D Systems 317-ILB (IL17a); 177-IR (IL17R/Fc)
T1 sequence (Q16552 20-155 limits assumed): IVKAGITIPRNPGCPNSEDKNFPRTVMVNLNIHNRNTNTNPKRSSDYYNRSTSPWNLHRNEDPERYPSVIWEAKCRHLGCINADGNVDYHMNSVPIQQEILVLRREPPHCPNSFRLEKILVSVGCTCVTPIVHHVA
Experimental: ELISA I: The ability of the compounds to block binding of IL17a to its receptor, IL17R, was analyzed in a competition ELISA format. High binding 96-well plates (Costar #9018) were coated with 20 nM of recombinant human IL17a (R&D Systems #317-ILB) in PBS (0.64 μg/mL), 100 μL/well, for 30 min at 37′C followed by 5 min at 4′C. Plates were then washed in PBST (PBS/0.05% Tween-20) on a plate washer, (Biotech EL-450) blocked with protein-free blocking buffer (Thermo Scientific #37573) in 250 μL/well for 30 min on shaker at room temperature, and then washed again. Compound dilutions prepared in PBST were added into the wells in duplicates followed by the addition of IL17R/Fc (R&D Systems #177-IR) at a final concentration of 12 nM. Plates were then incubated for 30 min at room temperature on the shaker. Wells with no compound served as a positive “no competitor” control, while wells with no IL17R/Fc and no compound served as a blank negative control. After an additional PBST wash, 50 ng/mL HRP-conjugated goat anti-human Fc IgG (KPL #04-10-20) was added to the plate for 30 min at room temperature, followed by PBST wash and addition of SureBlue™ TMB (KPL #52-00-03). After the sufficient color development, the reaction was fixed by the addition of 100 μL/well 0.5 N HCl and absorbance was measured at 450 nm on Biotek plate reader.
Data were processed using BioAssay Enterprise v10.1.4 (CambridgeSoft) software. Linear OD λ450 were plotted against log concentration (x) and fitted to a 4-parameter logistic equation. IC50 was calculated using positive ‘no competitor’ control data as an upper limit and blank control as a lower limit in each assay.

[2] = molecular target: T2, biotinylated human IL-17 (binding to IL17R/Fc) (Homo sapiens, UniProt Q16552); assay: IL-17 competition ELISA II (captured IL17R/Fc, biotinylated IL-17)
T2 construct: purchased R&D Systems 317-ILB (IL-17, biotinylated); 177-IR (IL17R/Fc)
T2 sequence (Q16552 20-155 limits assumed): T1 sequence (Q16552 20-155 limits assumed)
Outline: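 Anti-human IgG-coated plates captured IL17R/Fc (10 nM), then compound (5-fold dilutions from 1 μM) and biotinylated human IL-17 (20 nM stock) were added for 30 min at room temperature in PBST. Bound IL-17 detected by streptavidin-HRP/TMB at 450 nm. IC50 from 4-parameter logistic fit between no-competitor and blank controls.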

Row | SMILES | IC50 [1] [nM] | IC50 [2] [nM]
1 | O=C1CNC(=O)[C@@H](Cc2ccc(NC(=O)[C@H](Cc3ccccc3Cl)NC(=O)Cc3cccc(O)c3)cc2)NC(=O)CC2(CCCC2)CC(=O)NCCCCCN1 [Compound 217] | < 100 | –
2 | O=C1CNC(=O)[C@@H](Cc2ccc(NC(=O)[C@H](Cc3ccccc3Cl)NC(=O)c3ccc(CO)cc3)cc2)NC(=O)CC2(CCCC2)CC(=O)NCCCCCN1 [Compound 219] | 100 to 1000 | –
3 | O=C1CNC(=O)[C@@H](Cc2ccc(NC(=O)[C@H](Cc3ccccc3Cl)NC(=O)C3CCOCC3)cc2)NC(=O)CC2(CCCC2)CC(=O)NCCCCCN1 [Compound 220] | 100 to 1000 | –
4 | O=C1CNC(=O)[C@@H](Cc2ccc(NC(=O)[C@H](Cc3ccsc3)NC(=O)Cc3ccccc3)cc2)NC(=O)CC2(CCCC2)CC(=O)NCCCCCN1 [Compound 229] | < 100 | –
5 | COCC(=O)N[C@@H](Cc1ccccc1Cl)C(=O)Nc1ccc(C[C@H]2NC(=O)CC3(CCCC3)CC(=O)NCCCCCNC(=O)CNC2=O)cc1 [Compound 234] | 100 to 1000 | –
6 | O=C1CNC(=O)[C@@H](Cc2ccc(NC(=O)[C@H](Cc3ccccc3Cl)NC(=O)c3ncco3)cc2)NC(=O)CC2(CCCC2)CC(=O)NCCCCCN1 [Compound 235] | 100 to 1000 | –
7 | O=C1CNC(=O)[C@@H](Cc2ccc(NC(=O)[C@H](Cc3ccccc3)NC(=O)Cc3ccccc3)cc2)NC(=O)CC2(CCCC2)CC(=O)NCCCCCN1 [Compound 237] | < 100 | –
8 | CN(C(=O)Cc1ccccc1)[C@@H](Cc1ccccc1)C(=O)Nc1ccc(C[C@H]2NC(=O)CC3(CCCC3)CC(=O)NCCCCCNC(=O)CNC2=O)cc1 [Compound 238] | 1000 to 10000 | –
9 | O=C1CNC(=O)C(Cc2ccc(NC(=O)C(Cc3cccc(Cl)c3)NC(=O)Cc3ccccc3)cc2)NC(=O)CC2(CCCC2)CC(=O)NCCCCCN1 (centres unmarked) [Compound 239] | < 100 | –
10 | O=C1CNC(=O)[C@@H](Cc2ccc(NC(=O)[C@H](Cc3ccc(Cl)cc3)NC(=O)Cc3ccccc3)cc2)NC(=O)CC2(CCCC2)CC(=O)NCCCCCN1 [Compound 240] | < 100 | –
11 | O=C1CNC(=O)[C@@H](Cc2ccc(NC(=O)[C@H](Cc3ccc(Cl)c(Cl)c3)NC(=O)Cc3ccccc3)cc2)NC(=O)CC2(CCCC2)CC(=O)NCCCCCN1 [Compound 241] | 100 to 1000 | –
12 | CC1(C)CC(=O)NCCCCCNC(=O)CNC(=O)[C@@H](Cc2ccc(NC(=O)[C@H](CC3CC3)NC(=O)Cc3ccccc3)cc2)NC(=O)C1 [Compound 245] | 1000 to 10000 | –
13 | CC1(C)CC(=O)NCCCCCNC(=O)CNC(=O)[C@@H](Cc2ccc(NC(=O)[C@H](CC3CCC3)NC(=O)Cc3ccccc3)cc2)NC(=O)C1 [Compound 247] | 100 to 1000 | –
14 | COC(=O)[C@@H]1CCCCNC(=O)CNC(=O)[C@@H](Cc2ccc(NC(=O)[C@H](Cc3ccccc3Cl)NC(C)=O)cc2)NC(=O)CC2(CCCC2)CC(=O)N1 [Compound 248] | < 100 | –
15 | COC(=O)[C@@H]1CCCCNC(=O)CNC(=O)[C@@H](Cc2ccc(NC(=O)[C@H](Cc3ccccc3Cl)NC(=O)Cc3ccc(O)cc3)cc2)NC(=O)CC2(CCCC2)CC(=O)N1 [Compound 249] | < 100 | –
16 | COC(=O)[C@@H]1CCCCNC(=O)CNC(=O)[C@@H](Cc2ccc(NC(=O)[C@H](Cc3ccccc3Cl)NC(=O)c3cccnc3)cc2)NC(=O)CC2(CCCC2)CC(=O)N1 [Compound 250] | < 100 | –
17 | CC(=O)N[C@H](C(=O)Nc1ccc(C[C@H]2NC(=O)CC(C)(C)CC(=O)NCCCCCNC(=O)CNC2=O)cc1)C1CCCCC1 [Compound 252] | 1000 to 10000 | –
18 | CC1(C)CC(=O)NCCCCCNC(=O)CNC(=O)[C@@H](Cc2ccc(NC(=O)[C@H](Cc3cccs3)NC(=O)Cc3ccccc3)cc2)NC(=O)C1 [Compound 255] | 1000 to 10000 | –
19 | CC(=O)N[C@@H](Cc1cccs1)C(=O)Nc1ccc(C[C@H]2NC(=O)CC(C)(C)CC(=O)NCCCCCNC(=O)CNC2=O)cc1 [Compound 256] | > 10000 | –

Row | SMILES | IC50 [1] [nM] | IC50 [2] [nM]
20 | CC1(C)CC(=O)NCCCCCNC(=O)CNC(=O)[C@@H](Cc2ccc(NC(=O)[C@H](Cc3cccs3)NC(=O)Cc3ccc(O)cc3)cc2)NC(=O)C1 [Compound 257] | 100 to 1000 | –
21 | CC1(C)CC(=O)NCCCCCNC(=O)CNC(=O)[C@@H](Cc2ccc(NC(=O)[C@H](Cc3cccs3)NC(=O)c3cccnc3)cc2)NC(=O)C1 [Compound 258] | 1000 to 10000 | –
22 | O=C1CC2(CCCC2)CC(=O)N[C@H](Cc2ccc(NC(=O)[C@H](Cc3ccccc3Cl)NC(=O)Cc3ccc(O)cc3)cc2)C(=O)N[C@H](Cc2ccccc2)C(=O)NCCCCCN1 [Compound 262] | < 100 | –
23 | O=C1CNC(=O)[C@@H](Cc2ccc(NC(=O)[C@H](Cc3ccccc3Cl)NC(=O)Cc3ccc(O)cc3)cc2)NC(=O)CC2(CCCC2)CC(=O)N[C@H](C(=O)O)CCCCN1 [Compound 265] | < 100 | –
24 | O=C1CNC(=O)[C@@H](Cc2ccc(NC(=O)[C@H](Cc3ccccc3Cl)NS(=O)(=O)c3ccccc3)cc2)NC(=O)CC2(CCCC2)CC(=O)NCCCCCN1 [Compound 271] | 1000 to 10000 | –
25 | O=C1CNC(=O)[C@@H](Cc2ccc(NC(=O)[C@H](Cc3ccccc3Cl)NS(=O)(=O)Cc3ccccc3)cc2)NC(=O)CC2(CCCC2)CC(=O)NCCCCCN1 [Compound 272] | 100 to 1000 | –
26 | O=C1CNC(=O)[C@@H](Cc2ccc(NC(=O)[C@H](Cc3ccccc3Cl)NC(=O)CC3CCOCC3)cc2)NC(=O)CC2(CCCC2)CC(=O)NCCCCCN1 [Compound 275] | 100 to 1000 | –
27 | O=C1CNC(=O)[C@@H](Cc2ccc(NC(=O)[C@H](Cc3ccccc3Cl)NC(=O)c3ccc(O)c(F)c3)cc2)NC(=O)CC2(CCCC2)CC(=O)NCCCCCN1 [Compound 277] | 100 to 1000 | –
28 | O=C1CNC(=O)[C@@H](Cc2ccc(NC(=O)[C@@H](NC(=O)C(F)(F)c3ccccc3)C3CCCCC3)cc2)NC(=O)CC2(CCCC2)CC(=O)OCCCCCN1 [Compound 671] | – | < 100
29 | O=C1CNC(=O)[C@@H](Cc2ccc(NC(=O)[C@@H](NC(=O)C(F)F)C3CCCCC3)cc2)NC(=O)CC2(CCCC2)CC(=O)OCCCCCN1 [Compound 672] | – | < 100
30 | CC(=O)N[C@H](C(=O)Nc1ccc(C[C@H]2NC(=O)CC3(CCCC3)CC(=O)OCCCCCNC(=O)CNC2=O)cc1)C1CCCCC1 [Compound 673] | – | < 100
31 | O=C1CNC(=O)[C@@H](Cc2ccc(NC(=O)[C@H](Cc3ccccc3Cl)NC(=O)C(F)(F)c3ccccc3)cc2)NC(=O)CC2(CCCC2)CC(=O)OCCCCCN1 [Compound 674] | – | < 100
32 | O=C1CNC(=O)[C@@H](Cc2ccc(NC(=O)[C@H](Cc3ccccc3Cl)NC(=O)C(F)F)cc2)NC(=O)CC2(CCCC2)CC(=O)OCCCCCN1 [Compound 675] | – | < 100
33 | CC(=O)N[C@@H](Cc1ccccc1Cl)C(=O)Nc1ccc(C[C@H]2NC(=O)CC3(CCCC3)CC(=O)OCCCCCNC(=O)CNC2=O)cc1 [Compound 676] | – | < 100
34 | CCC(F)(F)C(=O)N[C@H](C(=O)Nc1ccc(C[C@H]2NC(=O)CC3(CCCC3)CC(=O)OCCCCCNC(=O)CNC2=O)cc1)C1CCCCC1 [Compound 677] | – | 100 to 1000
35 | CN1CCCCCOC(=O)CC2(CCCC2)CC(=O)N[C@H](Cc2ccc(NC(=O)[C@H](Cc3ccccc3Cl)NC(=O)C(F)(F)c3ccccc3)cc2)C(=O)NCC1=O [Compound 678] | – | < 100
36 | CN1CCCCCOC(=O)CC2(CCCC2)CC(=O)N[C@H](Cc2ccc(NC(=O)[C@@H](NC(=O)C(F)(F)c3ccccc3)C3CCCCC3)cc2)C(=O)NCC1=O [Compound 679] | – | < 100
37 | CCC(F)(F)C(=O)NC(C(=O)Nc1ccc(CC2NC(=O)CC3(CCCC3)CC(=O)OCCCCCN(C)C(=O)CNC2=O)cc1)C1CCCCC1 (centres unmarked) [Compound 680] | – | 100 to 1000
38 | CC(=O)NC(C(=O)Nc1ccc(CC2NC(=O)CC3(CCCC3)CC(=O)OCCCCCN(C)C(=O)CNC2=O)cc1)C1CCCCC1 (centres unmarked) [Compound 681] | – | < 100
